Data on 6 molecules can be found in patent US20260263596A1, “Programming B Cells to Produce IL-27 to Treat Inflammatory Diseases” (Board of Regents, The University of Texas System, priority 2022, published 2026).

“Also recorded” adds a separate entry of the source.

Experiment [1] concerns STING. Particulars: cited from earlier work.
For experiment [2], the system named is B cells. Kind of experiment: IL-27 induction in B cells by innate priming followed by CD154 or αCD40 plus IL-21. In kind it is cell-based, mouse. The settings on record: then CD154 or αCD40 plus IL-21; for IL-27 secretion / IL-27 induction by primed B cells: priming with CDN, compared with gold-standard LPS priming; for priming of B cells for induction of Il27p28 and Ebi3: 30 μg/ml for 4 h.

For experiment [3], the target named is STING (Homo sapiens, UniProt Q86WV6). Particulars: relative to c-di-GMP; cited from earlier work.
The next experiment concerns ILC3s. Kind of experiment: IL-27 stimulation of in vitro amplified ILC3s, FACS. In kind it is cell-based, C57 mice. From the text: FIG. 5A-5C. […] ILC3s were sort enriched (70%) by surface markers (IL-7R+CD45+Lin−CD117+ST2−) from mesenteric lymph nodes and cultured in the presence of IL-2 and IL-7 (to promote ILC survival) as well as IL-1B plus IL-23 (to promote ILC3 proliferation)—CD117 and ST2 are preferentially, albeit not exclusively, expressed by ILC3s and ILC2s, respectively. After 7 d of culture, ILCs were amplified by >10-fold and accounted for >95% of all cells. After washing to remove cytokines, ILC3s were stimulated with nil, IL-1P/IL-23 (to promote basal IL-22 expression in ILC3s) or IL-27 for 12 h. Cells were analyzed by FACS for expression of (A) T-bet, NKp46 and (B) IL-22, IL-17A and IFNγ, as quantified in (C).
Analyze the impact of recombinant IL-27 (in vitro) and B-27 cells (in vivo) on ILC3 gene protein expression. Tg(Rorc-cre)34 (JAX #022791) and Rosa26fl-STOP-fl-EYFP (JAX #006148) mice will be crossed to generate TgRorc-creRosa26fl-STOP-fl-EYFP mice, which will allow us to sort purify EYFP+IL-7R+CD45+Lin−CD117+ST2−ILC3s. Sorted ILC3s will be cultured in the presence of IL-7 and IL-2, which promote ILC survival, and stimulated them with recombinant IL-27 for 0 h, 6 h, 12 h and 24 h.

Experiment [4] relates to B cells. Particulars: cited from earlier work.
Experiment [5] has as its system STAT transcription factors. Briefly: STAT activation by human IL-27. In kind it is cell-based.
The mark [6] stands for this setting: enriched, in vitro amplified ILC3s from C57 mice, 12 h.

Chain of STING (Homo sapiens, UniProt Q86WV6) (Q86WV6 whole entry H232R, species assumed): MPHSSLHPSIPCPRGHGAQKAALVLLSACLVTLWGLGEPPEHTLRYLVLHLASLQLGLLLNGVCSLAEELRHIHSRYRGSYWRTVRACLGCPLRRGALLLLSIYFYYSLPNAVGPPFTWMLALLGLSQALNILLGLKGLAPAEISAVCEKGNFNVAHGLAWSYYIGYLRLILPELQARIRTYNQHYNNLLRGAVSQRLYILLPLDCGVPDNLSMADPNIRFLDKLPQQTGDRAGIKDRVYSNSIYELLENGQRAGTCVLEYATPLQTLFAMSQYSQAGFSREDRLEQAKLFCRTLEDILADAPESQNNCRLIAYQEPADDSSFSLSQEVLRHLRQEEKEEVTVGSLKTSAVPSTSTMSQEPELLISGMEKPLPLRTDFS

As for `Nc1nc2c(ncn2[C@@H]2O[C@H](CO)[C@@H](O)[C@H]2OP(=O)(O)OC[C@H]2O[C@@H](n3cnc4c(N)ncnc43)[C@H](O)[C@@H]2OP(=O)(O)O)c(=O)[nH]1` [2′5′-GpAp, linear GMP-AMP], the STING activation result with STING [1] was “does not activate STING”. For the same molecule, the “IL-27 secretion / IL-27 induction by primed B cells” value (“IL-27 secretion / IL-27 induction” below) with B cells [2] is “inefficient”.

Consider `Nc1ncnc2c1ncn2[C@@H]1O[C@@H]2COP(=O)(O)O[C@H]3[C@@H](O)[C@H](n4cnc5c(N)ncnc54)O[C@@H]3COP(=O)(O)O[C@H]2[C@H]1O` [c-di-AMP, 3′-5′ c-di-AMP], for which the “affinity to STING” value at STING [3] is reported as “much lower affinity to STING than c-di-GMP”. Besides, the “IL-27 secretion / IL-27 induction” value with B cells [2] was “inefficient”.

Consider cyclic GMP-AMP [cGAMP], for which, in the experiment on B cells [2], the “priming of B cells for induction of Il27p28 and Ebi3” value is reported as “sufficient”; the “IL-27 secretion / IL-27 induction” value is “prime B cells for IL-27 induction by CD154; also recorded: at the same magnitude as those of IL-27 induced by the gold-standard condition”.

Regarding `Nc1nc2c(ncn2[C@@H]2O[C@@H]3COP(=O)(O)O[C@H]4[C@@H](O)[C@H](n5cnc6c(=O)[nH]c(N)nc65)O[C@@H]4COP(=O)(O)O[C@H]3[C@H]2O)c(=O)[nH]1` [c-di-GMP, 3′-5′ c-di-GMP], in the experiment with B cells [2], the “priming of B cells for induction of Il27p28 and Ebi3” value was “sufficient”; the “IL-27 secretion / IL-27 induction” value is given as “at the same magnitude as those of IL-27 induced by the gold-standard condition”.

B1: IL-27: pleiotropic cytokine, heterodimer of IL-27p28 and EBI3 (protein, UniProt Q8NEV9 29-243; Q14213 21-229, looked up)
Interleukin-27 subunit alpha: FPRPPGRPQLSLQELRREFTVSLHLARKLLSEVRGQAHRFAESHLPGVNLYLLPLGEQLPDVSLTFQAWRRLSDPERLCFISTTLQPFHALLGGLGTQGRWTNMERMQLWAMRLDLRDLQRHLRFQVLAAGFNLPEEEEEEEEEEEEERKGLLPGALGSALQGPAQVSWPQLLSTYRLLHSLELVLSRAVRELLLLSKAGHSVWPLGFPTLSPQP
Interleukin-27 subunit beta: RKGPPAALTLPRVQCRASRYPIAVDCSWTLPPAPNSTSPVSFIATYRLGMAARGHSWPCLQQTPTSTSCTITDVQLFSMAPYVLNVTAVHPWGSSSSFVPFITEHIIKPDPPEGVRLSPLAERQLQVQWEPPGSWPFPEIFSLKYWIRYKRQGAARFHRVGPIEATSFILRAVRPRARYYVQVAAQDLTDYGELSDWSLPATATMSLGK
As to B1, in the experiment with ILC3s (setting [6]), the “IFNγ in ILC3s” value was “did not affect”, the “IL-17 in ILC3s” value is recorded as “reduced”, the “expression of IL-22 in ILC3s” value is given as “upregulated” and the “expression of T-bet in ILC3s” value was “upregulated”. Besides, the “polarization of ILC3s to express T-bet and IL-22” value in the experiment on ILC3s (in vitro) was “polarizes ILC3s to express T-bet and IL-22; also recorded: can polarize ILC3s in vitro to express T-bet and IL-22”. For the same molecule, the “STAT1/STAT3 activation, T-bet expression and IFNγ gene signature in B cells” value in the experiment with B cells [4] is “induce STAT1/STAT3 activation, T-bet expression, and IFNγ gene signature”.

B2: human IL-27: human cytokine IL-27 (protein, UniProt Q8NEV9 29-243; Q14213 21-229, looked up)
Interleukin-27 subunit alpha: FPRPPGRPQLSLQELRREFTVSLHLARKLLSEVRGQAHRFAESHLPGVNLYLLPLGEQLPDVSLTFQAWRRLSDPERLCFISTTLQPFHALLGGLGTQGRWTNMERMQLWAMRLDLRDLQRHLRFQVLAAGFNLPEEEEEEEEEEEEERKGLLPGALGSALQGPAQVSWPQLLSTYRLLHSLELVLSRAVRELLLLSKAGHSVWPLGFPTLSPQP
Interleukin-27 subunit beta: RKGPPAALTLPRVQCRASRYPIAVDCSWTLPPAPNSTSPVSFIATYRLGMAARGHSWPCLQQTPTSTSCTITDVQLFSMAPYVLNVTAVHPWGSSSSFVPFITEHIIKPDPPEGVRLSPLAERQLQVQWEPPGSWPFPEIFSLKYWIRYKRQGAARFHRVGPIEATSFILRAVRPRARYYVQVAAQDLTDYGELSDWSLPATATMSLGK
With B2, the “activation of STAT transcription factors” value in experiment [5] is recorded as “can activate STAT transcription factors”.
